{"source": "patent US20190343425A1", "about": "“TREATMENT OF A DISEASE OF THE GASTROINTESTINAL TRACT WITH A TNF INHIBITOR” (Progenity, Inc., priority 2016, published 2019)", "assay": "Tacrolimus tissue pharmacokinetics, oral versus intra-cecal ingestible device delivery", "type": "in vivo, Yorkshire-Cross farm swine", "details": "swine; intra-cecally (ingestible device) vs orally administered; FIG. 76", "procedure": "No further randomization procedure was employed.\nAnimals in Group 1 received an ingestible device containing 0.8 mL of vehicle solution (80% alcohol, 20% HCO-60). Animals in Group 2 received orally […] liquid formulation of tacrolimus at 4 mg/0.8 mL per animal (Prograf: 5 mg/mL). Animals in Group 3 received intra-cecally an ingestible device containing tacrolimus at 1 mg in 0.8 mL per ingestible device. Animals in Group 4 received intra-cecally an ingestible device containing tacrolimus at 2 mg in 0.8 mL per ingestible device. Animals in Group 5 received intra-cecally an ingestible device containing tacrolimus at 4 mg in 0.8 mL per ingestible device. To control for potential confounding effects of the surgery, all groups fast on Day −11 at least 24 hr before being subjected to anesthesia followed by surgical placements of a cecal port by a veterinary surgeon at Day −10. […]\nFor tissue necropsy, small intestine fluid and cecal fluid were collected separately from all the animals into two separate square plastic bottles, and stored at −20° C. The length and diameter of the cecum and the colon was measured from one animal in each group and recorded for reference. […] All samples were weighed, and the tissue sample weights were recorded. […] Around 3 grams of the total punched sample were collected into a pre-weighed 15-mL conical tube, and the tissue weight was recorded. […]", "data": [{"smiles": "C=CC[C@@H]1/C=C(\\C)C[C@H](C)C[C@H](OC)[C@H]2O[C@@](O)(C(=O)C(=O)N3CCCC[C@H]3C(=O)O[C@H](/C(C)=C/[C@@H]3CC[C@@H](O)[C@H](OC)C3)[C@H](C)[C@@H](O)CC1=O)[C@H](C)C[C@@H]2OC", "note": "[tacrolimus]", "values": [{"measurement": "mean concentration of tacrolimus in the cecum tissue and the proximate colon tissue", "result": "higher"}]}]}
